Laboratory results reported in patent US20160367623A1, “AGONISTS OF GUANYLATE CYCLASE USEFUL FOR THE TREATMENT OF GASTROINTESTINAL DISORDERS, INFLAMMATION, CANCER AND OTHER DISORDERS” (priority 2015, published 2016).
Bridge positions count the residues as written; N and C are the ends. Ends that are not written are not given here.

Tested on: patients with chronic idiopathic constipation (CIC)
Experiment: Second phase 3 CIC trial: change from baseline in stool consistency (BSFS)
Format: in vivo, human
[1] = 3 mg, Week 7, All Randomized (includes Duplicate Patients)
[2] = 3 mg, Week 7, ITT Population-Excluding Duplicate Patients
[3] = 3 mg, Week 8, All Randomized (includes Duplicate Patients)
[4] = 3 mg, Week 8, ITT Population-Excluding Duplicate Patients
[5] = 3 mg, Week 9, All Randomized (includes Duplicate Patients)
[6] = 3 mg, Week 9, ITT Population-Excluding Duplicate Patients
[7] = 3 mg, Week 10, All Randomized (includes Duplicate Patients)
[8] = 3 mg, Week 10, ITT Population-Excluding Duplicate Patients
[9] = 3 mg, Week 11, All Randomized (includes Duplicate Patients)
[10] = 3 mg, Week 11, ITT Population-Excluding Duplicate Patients
[11] = 3 mg, Week 12, All Randomized (includes Duplicate Patients)
[12] = 3 mg, Week 12, ITT Population-Excluding Duplicate Patients
[13] = 3 mg, overall average estimate across the 12-week treatment period, All Randomized (includes Duplicate Patients)
[14] = 3 mg, overall average estimate across the 12-week treatment period, ITT Population
[15] = 3 mg, overall average estimate across the 12-week treatment period, ITT Population-Excluding Duplicate Patients
[16] = 6 mg, Post-Treatment Week 13, All Randomized (includes Duplicate Patients)
[17] = 6 mg, Post-Treatment Week 13, ITT Population
[18] = 6 mg, Post-Treatment Week 13, ITT Population-Excluding Duplicate Patients
[19] = 6 mg, Post-Treatment Week 14, All Randomized (includes Duplicate Patients)
[20] = 6 mg, Post-Treatment Week 14, ITT Population

Substance: Asn^1-Asp^2-Glu^3-Cys^4-Glu^5-Leu^6-Cys^7-Val^8-Asn^9-Val^10-Ala^11-Cys^12-Thr^13-Gly^14-Cys^15-Leu^16 (NDECELCVNVACTGCL; disulfide 4-12, 7-15) [Plecanatide, uroguanylin analogue, guanylate cyclase-C agonist; (C4:C12, C7:C15) bicycle peptide]
- Change from Baseline in Stool Consistency, Difference from Placebo [1]: 0.60
- Change from Baseline in Stool Consistency, LS Mean (SE) [1]: 1.46 (0.072)
- Change from Baseline in Stool Consistency, Difference from Placebo (3 mg, Week 7, ITT Population): 0.60
- Change from Baseline in Stool Consistency, LS Mean (SE) (3 mg, Week 7, ITT Population): 1.49 (0.074)
- Change from Baseline in Stool Consistency, Mean (SD) (3 mg, Week 7, ITT Population): 1.58 (1.447)
- Change from Baseline in Stool Consistency, Difference from Placebo [2]: 0.61
- Change from Baseline in Stool Consistency, LS Mean (SE) [2]: 1.50 (0.075)
- Change from Baseline in Stool Consistency, Mean (SD) [2]: 1.60 (1.452)
- Change from Baseline in Stool Consistency, Difference from Placebo [3]: 0.67
- Change from Baseline in Stool Consistency, LS Mean (SE) [3]: 1.58 (0.072)
- Change from Baseline in Stool Consistency, Difference from Placebo (3 mg, Week 8, ITT Population): 0.66
- Change from Baseline in Stool Consistency, LS Mean (SE) (3 mg, Week 8, ITT Population): 1.60 (0.075)
- Change from Baseline in Stool Consistency, Mean (SD) (3 mg, Week 8, ITT Population): 1.71 (1.496)
- Change from Baseline in Stool Consistency, Difference from Placebo [4]: 0.67
- Change from Baseline in Stool Consistency, LS Mean (SE) [4]: 1.60 (0.075)
- Change from Baseline in Stool Consistency, Mean (SD) [4]: 1.71 (1.500)
- Change from Baseline in Stool Consistency, Difference from Placebo [5]: 0.68
- Change from Baseline in Stool Consistency, LS Mean (SE) [5]: 1.55 (0.073)
- Change from Baseline in Stool Consistency, Difference from Placebo (3 mg, Week 9, ITT Population): 0.68
- Change from Baseline in Stool Consistency, LS Mean (SE) (3 mg, Week 9, ITT Population): 1.57 (0.075)
- Change from Baseline in Stool Consistency, Mean (SD) (3 mg, Week 9, ITT Population): 1.68 (1.468)
- Change from Baseline in Stool Consistency, Difference from Placebo [6]: 0.66
- Change from Baseline in Stool Consistency, LS Mean (SE) [6]: 1.57 (0.076)
- Change from Baseline in Stool Consistency, Mean (SD) [6]: 1.68 (1.468)
- Change from Baseline in Stool Consistency, Difference from Placebo [7]: 0.62
- Change from Baseline in Stool Consistency, LS Mean (SE) [7]: 1.52 (0.073)
- Change from Baseline in Stool Consistency, Difference from Placebo (3 mg, Week 10, ITT Population): 0.61
- Change from Baseline in Stool Consistency, LS Mean (SE) (3 mg, Week 10, ITT Population): 1.54 (0.075)
- Change from Baseline in Stool Consistency, Mean (SD) (3 mg, Week 10, ITT Population): 1.65 (1.539)
- Change from Baseline in Stool Consistency, Difference from Placebo [8]: 0.61
- Change from Baseline in Stool Consistency, LS Mean (SE) [8]: 1.54 (0.076)
- Change from Baseline in Stool Consistency, Mean (SD) [8]: 1.65 (1.548)
- Change from Baseline in Stool Consistency, Difference from Placebo [9]: 0.55
- Change from Baseline in Stool Consistency, LS Mean (SE) [9]: 1.48 (0.073)
- Change from Baseline in Stool Consistency, Difference from Placebo (3 mg, Week 11, ITT Population): 0.54
- Change from Baseline in Stool Consistency, LS Mean (SE) (3 mg, Week 11, ITT Population): 1.50 (0.075)
- Change from Baseline in Stool Consistency, Mean (SD) (3 mg, Week 11, ITT Population): 1.58 (1.598)
- Change from Baseline in Stool Consistency, Difference from Placebo [10]: 0.54
- Change from Baseline in Stool Consistency, LS Mean (SE) [10]: 1.51 (0.076)
- Change from Baseline in Stool Consistency, Mean (SD) [10]: 1.59 (1.595)
- Change from Baseline in Stool Consistency, Difference from Placebo [11]: 0.57
- Change from Baseline in Stool Consistency, LS Mean (SE) [11]: 1.57 (0.073)
- Change from Baseline in Stool Consistency, Difference from Placebo (3 mg, Week 12, ITT Population): 0.58
- Change from Baseline in Stool Consistency, LS Mean (SE) (3 mg, Week 12, ITT Population): 1.60 (0.075)
- Change from Baseline in Stool Consistency, Mean (SD) (3 mg, Week 12, ITT Population): 1.69 (1.480)
- Change from Baseline in Stool Consistency, Difference from Placebo [12]: 0.58
- Change from Baseline in Stool Consistency, LS Mean (SE) [12]: 1.61 (0.076)
- Change from Baseline in Stool Consistency, Mean (SD) [12]: 1.70 (1.476)
- Change from Baseline in Stool Consistency, Difference from Placebo [13]: 0.63
- Change from Baseline in Stool Consistency, LS Mean (SE) [13]: 1.48 (0.058)
- Change from Baseline in Stool Consistency, Difference from Placebo [14]: 0.62
- Change from Baseline in Stool Consistency, LS Mean (SE) [14]: 1.49 (0.060)
- Change from Baseline in Stool Consistency, Difference from Placebo [15]: 0.62
- Change from Baseline in Stool Consistency, LS Mean (SE) [15]: 1.50 (0.061)
- Change from Baseline in Stool Consistency, Difference from Placebo [16]: 0.09
- Change from Baseline in Stool Consistency, LS Mean (SE) [16]: 1.08 (0.070)
- Change from Baseline in Stool Consistency, Mean (SD) [16]: 1.03 (1.408)
- Change from Baseline in Stool Consistency, Difference from Placebo [17]: 0.09
- Change from Baseline in Stool Consistency, LS Mean (SE) [17]: 1.08 (0.071)
- Change from Baseline in Stool Consistency, Mean (SD) [17]: 1.04 (1.410)
- Change from Baseline in Stool Consistency, Difference from Placebo [18]: 0.09
- Change from Baseline in Stool Consistency, LS Mean (SE) [18]: 1.08 (0.072)
- Change from Baseline in Stool Consistency, Mean (SD) [18]: 1.04 (1.414)
- Change from Baseline in Stool Consistency, Difference from Placebo [19]: 0.07
- Change from Baseline in Stool Consistency, LS Mean (SE) [19]: 1.06 (0.072)
- Change from Baseline in Stool Consistency, Mean (SD) [19]: 1.04 (1.393)
- Change from Baseline in Stool Consistency, Difference from Placebo [20]: 0.06
- Change from Baseline in Stool Consistency, LS Mean (SE) [20]: 1.07 (0.074)
- Change from Baseline in Stool Consistency, Mean (SD) [20]: 1.06 (1.354)
- Change from Baseline in Stool Consistency, Difference from Placebo (6 mg, Post-Treatment Week 14, ITT Population-Excluding Duplicate Patients): 0.06
